In brackets after ≈: the same amount, converted by molar mass.
Experiments:
[1] = Apparent half life in Swiss mouse at […], iv administered as bolus dose measured up to 24 hrs by UPLC-MS analysis; format: ADME, organism-based; settings: in vivo
[2] = simulated gi fluid, pH 5.8
[3] = Clearance in Sprague-Dawley rat plasma at […], iv administered as infusion for 10 mins and measured up to 24 hrs by LC-MS analysis; format: ADME, organism-based; settings: in vivo
[4] = simulated gi fluid, pH 6.5
[5] = Inhibition of yeast DHODH transformed in Plasmodium falciparum D10 in presence of 10 uM proguanil; design: species or system Saccharomyces cerevisiae
[6] = Volume of distribution at steady state in Sprague-Dawley rat at […], iv administered as infusion for 10 mins and measured up to 24 hrs by LC-MS analysis; format: ADME, organism-based; settings: in vivo, read-out: Vdss
[7] = Protein binding in rat plasma by LC-MS analysis based ultracentrifugation assay; format: ADME, cell-free; settings: read-out: PPB (converted)

Cc1c(Cc2ccc(C(F)(F)F)nc2)c[nH]c1C(=O)NC1CC1
t1/2(app) [1]: 2.8 h | solubility [2]: 0.115 mg/mL (≈ 356 µM) | clearance [3]: 1.72 L/h/kg | solubility [4]: 0.0601 mg/mL (≈ 186 µM) | EC50 [5]: > 20 µM | Vd [6]: 4.7 L/kg | fraction unbound [7]: 0.118

— ChEMBL document CHEMBL4602703, “Lead Optimization of a Pyrrole-Based Dihydroorotate Dehydrogenase Inhibitor Series for the Treatment of Malaria” (J Med Chem, 2020)
